The results in this text go back to PMC4926109, “Pharmacological targeting of glucose-6-phosphate dehydrogenase in human erythrocytes by Bay 11–7082, parthenolide and dimethyl fumarate” (Scientific Reports, 2016).

SMILES strings stand for the structures.

In data set [1] the test system is human erythrocytes. Briefly: Eryptosis: Annexin V binding to phosphatidylserine, flow cytometry. It counts as cell-based. Particulars: increasing concentrations, same donors, 24 h and 48 h. How it is done: (§1) After incubation, 2·10^6 RBCs were washed in 500 μl Annexin-binding buffer. RBC pellets were then vortexed gently to get a homogenous cell suspension. To detect phosphatidylserine (PS) on the outer leaflet of the plasma membrane, these cells were subsequently stained with 32 μl Annexin V-FLUOS at a 1:33 dilution and mixed gently on a vortex mixer. After 20 min incubation in the dark at room temperature, 200 μl of Annexin-binding buffer was added to each sample, thoroughly vortexed to achieve single cell suspensions, and analysed by flow cytometry on a FACS-Calibur (Becton Dickinson, Heidelberg, Germany). Cell volume was determined by forward scatter (FSC), and Annexin V-FLUOS binding was measured in the FL1-channel.
For orientation: A flow cytometer gives signals particle by particle.

The test system of data set [2] is mature human erythrocytes. Briefly: Forward scatter (FSC, GeoMean) by flow cytometry, cell volume / cell shrinkage. It counts as cell-based. The settings on record: for GeoMean: 20 μM, 24 h incubation, Hct 0.6%. On the procedure:
as §1

Data set [3] concerns the target T1, glutathione reductase (GR) (Homo sapiens, UniProt P00390).
T1 construct: endogenous in cells; host or cells: human erythrocytes (RBC concentrates), treated 24 h, then lysed
T1 sequence (P00390 1-479 isoform P00390-2): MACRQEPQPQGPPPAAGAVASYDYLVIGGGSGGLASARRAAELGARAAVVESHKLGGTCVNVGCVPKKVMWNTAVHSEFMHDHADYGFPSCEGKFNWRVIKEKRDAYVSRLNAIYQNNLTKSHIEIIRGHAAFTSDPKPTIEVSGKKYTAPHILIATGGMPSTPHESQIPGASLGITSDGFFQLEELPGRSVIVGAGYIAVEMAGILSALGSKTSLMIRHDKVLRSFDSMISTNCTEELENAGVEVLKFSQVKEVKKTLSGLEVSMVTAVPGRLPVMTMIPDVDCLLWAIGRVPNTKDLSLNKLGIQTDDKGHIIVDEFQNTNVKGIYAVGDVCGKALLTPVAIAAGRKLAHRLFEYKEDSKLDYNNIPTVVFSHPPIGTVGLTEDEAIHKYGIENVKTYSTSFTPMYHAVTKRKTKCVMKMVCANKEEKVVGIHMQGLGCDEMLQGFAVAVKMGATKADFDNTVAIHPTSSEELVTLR
Briefly: GR activity (+/- FAD) in lysates of inhibitor-treated erythrocytes. It counts as cell-based. How it is done: (§2) DMSO-treated erythrocytes served as negative controls. Determinations of the enzymatic activities of G6PDH, 6PGDH and GR (+/− FAD) were performed in leukocytes- and platelets-free erythrocyte lysates according to standard biochemical procedures. After 10 min incubation (20 min for GR) at 37 °C the reaction was started by adding substrate or co-factor. Changes in absorbance at 340 nm were recorded at 1 min intervals for 20 min (Infinite 200 Nanoquant spectrophotometer; Tecan, Männedorf, Switzerland). Specific activity of all enzymes was expressed as U/g Hb. The combined activity of G6PDH and 6PGDH was determined by estimating the conversion of NADP^+ to NADPH in the presence of glucose-6-phosphate (600 μM). The activity of 6PGDH alone was then measured by the conversion of NADP^+ to NADPH in the presence of 6-phosphogluconate (600 μM). Finally, G6PDH activity was calculated by subtracting 6PGDH activity from total dehydrogenase activity.

In data set [4] the test system is GSH in mature human erythrocytes. Description: Intracellular GSH measurement by HPLC (GS-NEM conjugate). It counts as cell-based. How it is done: (§3) DMSO-treated erythrocytes served as negative controls. After incubation, erythrocytes were treated with 0.6 mM (final concentration) NEM prepared as a 310 mM stock in H2O. NEM functioned as the best alkylating agent for GSH conjugation to prevent sample manipulation-induced oxidation of GSH. After a 2-min incubation at room temperature, samples were centrifuged at 210 g for 10 min in order to obtain RBC pellets. These were immediately stored at −20 °C until GSH and GSSG analyses were performed. All measurements were carried out within one week after the treatment. GSH and GSSG were measured in the clear supernatant obtained by treatment of 0.1 ml RBCs with 0.12 ml 15% (w/v) trichloroacetic acid. GSH analysis was carried out by high-performance liquid chromatography (HPLC), as recently reported. […] GSSG was measured photometrically by the GSH recycling method with slight modifications. For hemoglobin determination, one aliquot of the RBC suspensions (10 μl) was hemolysed by 1:200 dilution with H2O[62]. The HPLC analyses were carried out with an Agilent series 1100 instrument (Agilent Technologies, Milan, Italy). The photometric analyses were performed with a Jasco V-530 instrument (Jasco Europe s.r.l. Cremella, Como, Italy).

Data set [5] deals with mature human erythrocytes. Description: MCV and MCHC of inhibitor-treated erythrocytes (ADVIA 120 Hematology System). The class given is cell-based. Particulars: 20 μM, 24 h incubation, Hct 0.6%. On the procedure: Erythrocyte concentrates (0.6% Hct), suspended in 30 ml Ringer solution were treated with Bay 11–7082 (20 μM), parthenolide (50 μM) and DMF (140 μM) for 24 h, respectively. DMSO (0.2% (v/v))-treated erythrocytes served as negative controls. After incubation, samples were centrifuged at 210 g for 10 min at room temperature in order to obtain RBC pellets. Ionomycin (0.25 μM)-treated erythrocytes served as positive controls, and were first incubated in Ringer solution in the absence of ionomycin for 21.5 h. Subsequently, the cells were treated with ionomycin for 2.5 h, and the MCV and MCHC values were determined. The MCV and MCHC analysis was carried out with an ADVIA 120 Hematology System Instrument (Siemens, Germany).

In data set [6] the test system is Trypanosoma brucei. Briefly: In vitro growth inhibition of parasite culture (own unpublished data). The class given is cell-based. The settings on record: preliminary work.
Data set [7] concerns human erythrocytes. The settings on record: 20 µM.
Description: RBC concentrates (0.4% Hct) were treated with varying concentrations of Bay 11–7082, parthenolide or DMF for 24 h or 48 h, then hemolysis was determined. Briefly, after incubation, 600 μl suspension containing 1.2·10^7 RBCs were centrifuged for 4 min at 420 g, 4 °C, and the supernatants were harvested. To quantify hemolysis, the hemoglobin concentration of the supernatant was determined photometrically at 405 nm. The absorption of the supernatant of RBCs lysed in distilled water was defined as 100% hemolysis.
Data set [8] deals with T2, 6PGDH (Homo sapiens, UniProt P52209).
T2 construct: endogenous in cells; host or cells: human erythrocytes (RBC concentrates), treated 24 h, then lysed
T2 sequence (P52209 2-483 limits assumed): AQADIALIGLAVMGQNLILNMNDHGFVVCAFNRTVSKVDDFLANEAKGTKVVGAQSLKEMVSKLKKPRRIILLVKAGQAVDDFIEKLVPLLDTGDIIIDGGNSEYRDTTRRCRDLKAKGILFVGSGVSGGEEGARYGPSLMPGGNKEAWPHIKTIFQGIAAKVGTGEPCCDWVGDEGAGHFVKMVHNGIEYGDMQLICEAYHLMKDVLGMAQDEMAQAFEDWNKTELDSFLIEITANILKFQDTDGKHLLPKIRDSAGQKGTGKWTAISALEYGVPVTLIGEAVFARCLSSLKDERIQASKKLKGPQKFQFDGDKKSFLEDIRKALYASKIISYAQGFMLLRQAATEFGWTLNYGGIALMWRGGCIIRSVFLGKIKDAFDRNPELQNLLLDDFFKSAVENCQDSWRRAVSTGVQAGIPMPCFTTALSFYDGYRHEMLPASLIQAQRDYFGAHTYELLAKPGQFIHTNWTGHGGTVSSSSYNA
Description: 6PGDH activity in lysates of inhibitor-treated erythrocytes. The class given is cell-based. Particulars: at the concentrations used, data not shown. On the procedure: as §2

Data set [9] has as its target T3, glucose-6-phosphate dehydrogenase (G6PDH) (Homo sapiens, UniProt P11413).
T3 construct: endogenous in cells; host or cells: human erythrocytes (RBC concentrates), treated 24 h, then lysed
Description: G6PDH activity in lysates of inhibitor-treated erythrocytes. The class given is cell-based. The settings on record: erythrocytes treated 24 h, 0.6% Hct. How it is done: as §2

In data set [10] the test system is GSSG in mature human erythrocytes. Description: Intracellular GSSG measurement, photometric GSH recycling method. It counts as cell-based. Particulars: 20 μM, 24 h, 0.6% Hct; DMSO control 0.06. On the procedure: as §3

T3 sequence (P11413 2-515 limits assumed): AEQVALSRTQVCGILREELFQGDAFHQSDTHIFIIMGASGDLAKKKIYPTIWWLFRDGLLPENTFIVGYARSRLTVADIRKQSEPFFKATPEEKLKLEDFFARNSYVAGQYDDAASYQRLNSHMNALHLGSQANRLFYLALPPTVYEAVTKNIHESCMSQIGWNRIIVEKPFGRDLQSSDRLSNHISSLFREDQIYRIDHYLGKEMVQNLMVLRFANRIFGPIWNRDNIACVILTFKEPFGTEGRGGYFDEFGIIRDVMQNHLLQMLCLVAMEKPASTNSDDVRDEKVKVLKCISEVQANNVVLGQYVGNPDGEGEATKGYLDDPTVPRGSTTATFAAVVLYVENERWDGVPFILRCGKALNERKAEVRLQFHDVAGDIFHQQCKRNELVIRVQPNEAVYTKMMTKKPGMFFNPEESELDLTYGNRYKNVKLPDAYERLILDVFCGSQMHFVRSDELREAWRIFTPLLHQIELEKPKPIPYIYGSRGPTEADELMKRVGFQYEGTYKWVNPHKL

One may read the EC50 as the concentration at which the effect is half-maximal. One may read the IC50 as the midpoint of a concentration-inhibition curve. In the case of `Cc1ccc(S(=O)(=O)/C=C/C#N)cc1` [Bay 11–7082], the “eryptosis (Annexin V binding), comparison of the three inhibitors” value in data set [1] was “strongest effect”. Moreover, the GeoMean in data set [2] (blood group A Rhesus +) came out at 422.4; in [2] (blood group B Rhesus +), 339.3; in [2] (blood group O Rhesus +), 410.7. In addition, the “decrease of cell volume (forward scatter)” value in data set [2] (increasing concentrations, 24 h and 48 h, 0.4% Hct) is on record as “marked decrease”. Moreover, the “inhibition of GR activity” value in [3] (20 μM, 24 h) amounted to 100%. In addition, in [3] (erythrocytes treated 24 h, 0.6% Hct), the “EC100 (inhibition of GR activity)” value is 20. The EC50 is 10 µM in [3] (erythrocytes treated 24 h, 0.6% Hct, read-out: EC50 (inhibition of GR activity)) and 10 µM in data set [9] (read-out: EC50 (inhibition of G6PDH activity)). Further, in [3] (samples previously treated with 20 μM for 24 h), the “GR activity after addition of exogenous FAD” value was “did not demonstrate significantly increased GR activity in the presence of FAD”. Moreover, the GSH depletion entry in data set [4] (20 μM final concentration, 24 h) is “totally deplete GSH”. In data set [4] (20 μM, 24 h, 0.6% Hct, DMSO control 7.52), this molecule came in with a GSH of 0.00 nmol/mg Hb. Besides, in [4] (24 h in Ringer solution, 0.6% Hct (mean GSH 15 μM), read-out: IC50 (GSH depletion)), the half-inhibitory concentration (IC50) is 7.6 µM. In addition, the MCHC is on record as 33.9 g/dL in [5] (blood group A Rhesus +), 37 g/dL in data set [5] (blood group B Rhesus +) and 34.1 g/dL in data set [5] (blood group O Rhesus +). For the same molecule, the MCV in data set [5] (blood group A Rhesus +) is 84.1 fL; in data set [5] (blood group B Rhesus +), 78.5 fL; in data set [5] (blood group O Rhesus +), 86.3 fL. For the same molecule, the “in vitro growth inhibitory effect on parasites' culture” value in data set [6] is recorded as “significant in vitro growth inhibitory effect”. In addition, the “hemolysis (share of total population)” value in data set [7] is “approx. 3%”. Also, in data set [8], the “inhibitory effect on 6PGDH activity” value is reported as “did not observe any inhibitory effect”. Further, the “EC100 (inhibition of G6PDH activity)” value in data set [9] came to 20. In data set [10], this molecule showed a GSSG of 0.03 nmol/mg Hb.
